Results published in ChEMBL document CHEMBL1148648, “Novel 1,3-disubstituted 8-(1-benzyl-1H-pyrazol-4-yl) xanthines: high affinity and selective A2B adenosine receptor antagonists” (J Med Chem, 2006).

Key:
[1] = molecular target: Adenosine receptors; A1 & A2b (Homo sapiens) (UniProt P30542+P29275); experiment: Selectivity for human adenosine A2b receptor over adenosine A1 receptor; format: protein assay
[2] = molecular target: Adenosine A2 receptor (Homo sapiens) (UniProt P29275+P29274); experiment: Selectivity for human adenosine A2b receptor over adenosine A2a receptor; format: protein assay
Adenosine receptor A2b = molecular target: T1, Adenosine receptor A2b (Homo sapiens, UniProt P29275); experiment: Displacement of [3H]ZM241385 from human adenosine A2b receptor expressed in HEK cells; format: cell-based, HEK293
T1 sequence (P29275 whole entry): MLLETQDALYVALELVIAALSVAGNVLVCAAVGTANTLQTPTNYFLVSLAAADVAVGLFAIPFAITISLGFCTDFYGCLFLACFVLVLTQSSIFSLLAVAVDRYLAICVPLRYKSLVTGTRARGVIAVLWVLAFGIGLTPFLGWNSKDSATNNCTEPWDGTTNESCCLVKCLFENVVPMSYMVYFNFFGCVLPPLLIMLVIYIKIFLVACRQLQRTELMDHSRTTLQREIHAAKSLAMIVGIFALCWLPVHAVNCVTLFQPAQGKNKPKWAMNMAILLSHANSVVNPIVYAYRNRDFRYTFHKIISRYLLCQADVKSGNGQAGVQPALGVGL

Adenosine receptor A2a = Adenosine receptor A2a (Homo sapiens, UniProt P29274); experiment: Displacement of [3H]ZM-241385 from human adenosine A2a receptor expressed in HEK cells; format: cell-based, HEK293
Adenosine receptor A1 = molecular target: T2, Adenosine receptor A1 (Homo sapiens, UniProt P30542); experiment: Displacement of [3H]CPX from human adenosine A1 receptor expressed in CHO cells
T2 sequence (P30542 whole entry): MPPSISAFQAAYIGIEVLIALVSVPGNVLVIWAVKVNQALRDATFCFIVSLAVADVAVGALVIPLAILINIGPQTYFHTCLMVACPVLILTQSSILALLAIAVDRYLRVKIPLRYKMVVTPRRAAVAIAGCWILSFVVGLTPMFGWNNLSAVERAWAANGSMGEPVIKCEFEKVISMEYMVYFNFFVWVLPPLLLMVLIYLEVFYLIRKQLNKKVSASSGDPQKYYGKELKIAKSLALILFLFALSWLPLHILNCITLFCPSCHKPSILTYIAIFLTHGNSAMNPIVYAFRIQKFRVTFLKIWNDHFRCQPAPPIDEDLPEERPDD

Adenosine receptor A2a, sequence (P29274 whole entry): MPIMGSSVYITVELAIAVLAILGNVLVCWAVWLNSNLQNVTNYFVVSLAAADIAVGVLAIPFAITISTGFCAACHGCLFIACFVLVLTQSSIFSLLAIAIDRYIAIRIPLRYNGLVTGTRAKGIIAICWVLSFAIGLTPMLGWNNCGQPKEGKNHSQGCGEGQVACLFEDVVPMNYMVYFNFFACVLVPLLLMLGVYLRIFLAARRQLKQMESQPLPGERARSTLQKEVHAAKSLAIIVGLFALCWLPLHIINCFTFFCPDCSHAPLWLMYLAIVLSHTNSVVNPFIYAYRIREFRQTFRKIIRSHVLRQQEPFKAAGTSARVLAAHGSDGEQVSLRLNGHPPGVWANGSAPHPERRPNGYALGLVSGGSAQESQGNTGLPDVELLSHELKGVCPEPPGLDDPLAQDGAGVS

Structure (SMILES) | Ratio Ki [1] | Ratio Ki [2] | Ki (Adenosine receptor A2b) [µM] | Ki (Adenosine receptor A2a) [µM] | Ki (Adenosine receptor A1) [µM]
CC(C)Cn1c(=O)c2nc(-c3cnn(Cc4cccc(C(F)(F)F)c4)c3)[nH]c2n(CC(C)C)c1=O | 10 | 14 |  |  | 
CCCn1c(=O)c2c(nc(-n3cccn3)n2Cc2ccccc2)n(CCC)c1=O |  |  | > 5.8 |  | 
CCCn1c(=O)c2nc(-c3cnn(Cc4c(F)cc(F)cc4F)c3)[nH]c2n(CCC)c1=O |  |  | 0.65 |  | 
CCn1c(=O)c2nc(-c3cnn(Cc4ccccc4)c3)[nH]c2n(CC)c1=O | 30 | 6 |  |  | 
CCCn1c(=O)c2nc(-c3cnn(CCc4ccccc4)c3)[nH]c2n(CCC)c1=O | 0.2 | 7 | 0.074 | 0.57 | 0.017
CCn1c(=O)c2nc(-c3cnn(Cc4cccc(C(F)(F)F)c4)c3)[nH]c2n(CC)c1=O | 44 | 34 | 0.013 | 0.45 | 0.57
CC(C)Cn1c(=O)c2[nH]c(-c3cnn(Cc4cccc(F)c4)c3)nc2n(CC(C)C)c1=O |  |  | 0.99 | 1.3 | 0.83
CCCn1c(=O)c2[nH]c(-c3cnn(Cc4ccccc4F)c3)nc2n(CCC)c1=O |  |  | 0.028 | 0.06 | 0.019
CCCn1c(=O)c2[nH]c(-c3cnn(Cc4cccc(F)c4F)c3)nc2n(CCC)c1=O |  |  | 0.24 |  | 
CCCn1c(=O)c2nc(-c3cnn(Cc4cc(Cl)ccc4Cl)c3)[nH]c2n(CCC)c1=O | 6 | 2 |  |  | 
CCn1c(=O)c2nc(-c3cnn(Cc4cccc(F)c4)c3)[nH]c2n(CC)c1=O | 76 | 58 | 0.005 | 0.29 | 0.38
CCCn1c(=O)c2[nH]c(-c3cnn(Cc4cc(C(F)(F)F)cc(Cl)c4F)c3)nc2n(CCC)c1=O |  |  | 0.36 |  | 
CCCn1c(=O)c2nc(-c3cnn(Cc4ccc(C(F)(F)F)cc4)c3)[nH]c2n(CCC)c1=O | 2 | 7 | 0.02 | 0.15 | 0.041
CCCn1c(=O)c2[nH]c(-c3cnn(Cc4cc(C(F)(F)F)cc(C(F)(F)F)c4)c3)nc2n(CCC)c1=O |  |  | 0.35 |  | 
CCCn1c(=O)c2nc(-c3cnn(Cc4ccccc4C)c3)[nH]c2n(CCC)c1=O | 0.6 | 2 |  |  | 
CC(C)Cn1c(=O)c2[nH]c(-c3cnn(Cc4cccc(C(F)(F)F)c4)c3)nc2n(CC(C)C)c1=O |  |  | 0.3 | 4.3 | 3.1

Structure (SMILES) | Ratio Ki [1] | Ratio Ki [2] | Ki (Adenosine receptor A2b) [µM] | Ki (Adenosine receptor A2a) [µM] | Ki (Adenosine receptor A1) [µM]
CCCn1c(=O)c2nc(-c3cnn(Cc4cccc(C)c4F)c3)[nH]c2n(CCC)c1=O | 9 | 10 |  |  | 
CCCn1c(=O)c2nc(-c3cnn(Cc4ccc(OC)c(C(F)(F)F)c4)c3)[nH]c2n(CCC)c1=O |  |  | 0.41 |  | 
CCCn1c(=O)c2nc(-c3cnn(Cc4ccc(OC)cc4)c3)[nH]c2n(CCC)c1=O | 2 | 1 |  |  | 
CCCn1c(=O)c2nc(-c3cnn(Cc4ccc(Cl)c(C(F)(F)F)c4)c3)[nH]c2n(CCC)c1=O |  |  | 0.2 |  | 
CC(C)Cn1c(=O)c2[nH]c(-c3cnn(Cc4ccccc4)c3)nc2n(CC(C)C)c1=O |  |  | 1.25 | 1.1 | 0.62
CCCn1c(=O)c2nc(-c3cnn(-c4ccccc4)c3)[nH]c2n(CCC)c1=O | 2 | 2 |  |  | 
CCCn1c(=O)c2nc(-c3cnn(Cc4ccc(C)cc4)c3)[nH]c2n(CCC)c1=O | 1 | 2 |  |  | 
CCCn1c(=O)c2nc(-c3cnn(Cc4ccccc4C(F)(F)F)c3)[nH]c2n(CCC)c1=O | 1 | 6 |  |  | 
CC(C)Cn1c(=O)c2nc(-c3cnn(Cc4cccc(F)c4)c3)[nH]c2n(CC(C)C)c1=O | 1 | 1 |  |  | 
CCCn1c(=O)c2nc(-c3cnn(Cc4ccccc4F)c3)[nH]c2n(CCC)c1=O | 0.6 | 2 |  |  | 
CCCn1c(=O)c2nc(-c3cc(C)nn3CC)[nH]c2n(CCC)c1=O |  |  | 2.1 |  | 
CCCn1c(=O)c2nc(-c3cnn(-c4ccccc4)c3C(F)(F)F)[nH]c2n(CCC)c1=O |  |  | > 6.6 |  | 
CCCn1c(=O)c2[nH]c(-c3cnn(Cc4cc(F)ccc4Cl)c3)nc2n(CCC)c1=O |  |  | 4.8 |  | 
CCCn1c(=O)c2[nH]c(-c3cnn(Cc4cc(Cl)ccc4Cl)c3)nc2n(CCC)c1=O |  |  | 0.029 | 0.07 | 0.19
CCCn1c(=O)c2[nH]c(-c3cnn(-c4ccccc4)c3)nc2n(CCC)c1=O |  |  | 0.31 | 0.56 | 0.77
